The values that follow come from US20240245753A1, “METHODS OF REDUCING SIDE EFFECTS OF ANTI-CD30 ANTIBODY DRUG CONJUGATE THERAPY” (priority 2017, published 2024).

The test system of data set [1] is newly diagnosed CD30-positive mature T- and NK-cell neoplasms, including sALCL. To be noted: given concomitantly with CHP; cited from earlier work.
Data set [2] has as its system relapsed or refractory sALCL. To be noted: cited from earlier work.
Data set [3] can be described thus: Randomized, double-blind Phase 3 clinical trial of A+CHP versus CHOP: safety (adverse events, exposure). To be noted: human, in vivo. From the text:
TRIAL DESIGN: Approximately 450 patients (approximately 225 patients per treatment arm) are randomized in this study. The standard of care in this patient population consists of 6-8 cycles of CHOP chemotherapy. Patients are randomized in a 1:1 manner to receive 21-day cycles of treatment in 1 of the following 2 treatment groups: Standard-of-care arm: 6-8 cycles of CHOP; or Experimental arm: 6-8 cycles of brentuximab vedotin plus CHP (A+CHP). A target of 8 cycles of study treatment are administered, per investigator decision, based on patient-specific characteristics, including stage of disease and IPI risk score.
Safety is evaluated by the incidence of adverse events, using the Medical Dictionary for Regulatory Activities (MedDRA; v19.0), and National Cancer Institute Common Terminology Criteria for Adverse Events v4.03, and by changes in vital signs, and clinical laboratory results.
All efficacy evaluations are conducted using the intent-to-treat population unless otherwise specified. Safety is analyzed in patients who received at least one dose of study drug (safety population).
Subjects were randomly assigned in a 1:1 ratio to receive 21-day cycles of either A+CHP or CHOP for 6 or 8 cycles, with the number of cycles determined at the outset and based on investigator discretion. […]

Read-outs that look alike come from different tables or passages of the source.

On to brentuximab vedotin, for which the maximum tolerated dose in data set [1] is recorded as 1.8 mg/kg. Further, in data set [2] (1.8 mg/kg every 3 weeks), the “median duration of response” value is reported as 12.6 months, the “objective response (CR+PR) rate” value is reported as 86% and the “patients achieving a CR” value is 57%. The tolerability result in data set [2] (manageable side effects) is listed as “generally well tolerated”. Also, in data set [2] (subset of patients who achieved a CR), the “median duration of response” value is 13.2 months.

B1: G-CSF (protein, UniProt P09919 31-207, looked up)
Granulocyte …: TPLGPASSLPQSFLLKCLEQVRKIQGDGAALQEKLVSECATYKLCHPEELVLLGHSLGIPWAPLSSCPSQALQLAGCLSQLHSGLFLYQGLLQALEGISPELGPTLDTLQLDVADFATTIWQQMEELGMAPALQPTQGAMPAFASAFQRRAGGVLVASHLQSFLEVSYRVLRHLAQP
For B1, the “effect of primary prophylactic G-CSF on febrile neutropenia” value in data set [3] is “reduced the incidence and severity”.
